Reference: PubChem BioAssay (NCI)
Where “and” joins values, the source holds several entries; their conditions need not be identical. Equal entries are not always repeated.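 Tested at 5 concentrations; 48 h exposure; 96-well plates; endpoints linearly interpolated, else capped at highest concentration. Here, GI50 denotes the concentration required for 50% inhibition of growth. Definition used: TGI = concentration required for complete inhibition of growth.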

What was measured:
Experiment in all cases: NCI-60 cell line screen, 48 h
COLO 205 colon = system: COLO 205 colon
RXF 393 renal = system: RXF 393 renal
LOX IMVI melanoma = system: LOX IMVI melanoma
SK-OV-3 ovarian = system: SK-OV-3 ovarian
NCI-H522 lung = system: NCI-H522 lung
HT29 colon = system: HT29 colon
A498 renal = system: A498 renal
UACC-257 melanoma = system: UACC-257 melanoma
SNB-19 CNS = system: SNB-19 CNS
U251 CNS = system: U251 CNS

Row | SMILES | TGI (COLO 205 colon) | TGI (RXF 393 renal) | TGI (LOX IMVI melanoma) | TGI (SK-OV-3 ovarian) | TGI (NCI-H522 lung) | TGI (HT29 colon) | TGI (A498 renal) | TGI (UACC-257 melanoma) | TGI (SNB-19 CNS) | GI50 (RXF 393 renal) | GI50 (LOX IMVI melanoma) | GI50 (SK-OV-3 ovarian) | GI50 (U251 CNS) | TGI (U251 CNS) | GI50 (NCI-H522 lung) | GI50 (HT29 colon) | GI50 (A498 renal) | GI50 (UACC-257 melanoma) | GI50 (SNB-19 CNS) | GI50 (COLO 205 colon)
1 | CCOC1C=CCCO1 (centres undefined) | > 100 µM | > 100 µM | > 100 µM | > 100 µM | > 100 µM | > 100 µM | > 100 µM | > 100 µM | > 100 µM | – | – | – | – | – | – | – | – | – | – | –
2 | COc1ccc(/C=C/C(=O)c2cc3c(N)c(C(=O)Nc4ccccc4)sc3nc2C)cc1 | – | 2.31 µM | 2.77 µM | > 50 µM | 4.56 µM | > 26.6 µM | 0.487 µM | > 50 µM | > 50 µM | 0.114 µM | 0.332 µM | 0.248 µM | 0.325 µM | 8.24 µM | 0.113 µM | 0.179 µM | 0.114 µM | 18 µM | 0.269 µM | –
3 | COc1cc(/C=C/C(=O)c2c(C)n([O-])c3ccc(Cl)cc3[n+]2=O)cc(OC)c1OC | > 100 µM | 30.2 µM | > 100 µM | > 100 µM | > 100 µM | > 100 µM | > 100 µM | > 100 µM | 77 µM | 10.2 µM | 90.2 µM | 34.6 µM | 34.4 µM | > 100 µM | > 100 µM | > 100 µM | 23.5 µM | 49.6 µM | 21.2 µM | > 100 µM
4 | C/C(=C\CC[C@]1(C)OC(C)(C)OC1CC/C(C)=C/CO[Si](c1ccccc1)(c1ccccc1)C(C)(C)C)CC/C=C/CO[Si](C)(C)C(C)(C)C (some centres undefined) | – | > 100 µM | > 100 µM | > 100 µM | > 100 µM | > 100 µM | > 100 µM | > 100 µM | > 100 µM | – | – | – | – | > 100 µM | – | – | – | – | – | –
5 | C[CH2][Sn]([Cl])([Cl])[CH2]C | 34.8 µM | 32.7 µM | 33.1 µM | > 100 µM | 2.67 µM | > 100 µM | 43.7 µM | 35 µM | > 91.9 µM | 17.5 µM | 17.5 µM | > 100 µM | 27.4 µM | > 59.1 µM | 1.16 µM | 55.2 µM | 23.4 µM | 18.4 µM | 39.5 µM | 19.1 µM
6 | CC1=NN(C(=O)c2ccc(Cl)cc2)C(=O)/C1=C/c1ccc(O)cc1 | > 100 µM | > 100 µM | > 100 µM | > 100 µM | > 100 µM | > 100 µM | > 100 µM | > 100 µM | > 100 µM | – | – | – | – | > 100 µM | – | – | – | – | – | –
7 | C=C(C)[C@H](O)C(O)CC(C)[C@@H]1CCC23CC12CCC1[C@@]2(C)CCC(OC(C)=O)C(C)(C)C2CC(OC2OC(COC(C)=O)C(O)C(O)C2O)[C@]13C (some centres undefined) | 12.6 µM | 8.49 µM | 10.7 µM | 14.3 µM | 9.91 µM | 8.77 µM | 14.7 µM | 12 µM | 11.6 µM | – | – | – | – | 10.1 µM | – | – | – | – | – | –
8 | N#CC(C#N)=C1SCC(=O)CS1 | > 100 µM | > 100 µM | > 100 µM | > 100 µM | > 100 µM | > 100 µM | > 100 µM | > 100 µM | > 100 µM | – | – | – | – | > 100 µM | – | – | – | – | – | –
9 | CC1/C(=N/Nc2ccc([N+](=O)[O-])cc2)CC2C3(C)CCC2(C(C)C(=O)O)C(=O)C13 (centres undefined) | > 100 µM | > 100 µM | > 100 µM | > 100 µM | > 100 µM | > 100 µM | 41.9 µM | > 100 µM | > 100 µM | 3.18 µM | 75.3 µM | > 100 µM | 30.2 µM | > 100 µM | 4.48 µM | 6.18 µM | 0.85 µM | > 100 µM | > 100 µM | 9 µM
10 | CCOC(=O)NC(=O)c1cn(CCN2CCN(C(=O)NCCCCCCNC(=O)N3CCN(CCn4cc(C(=O)NC(=O)OCC)c(=O)n(CCN(CC)CC)c4=O)CC3)CC2)c(=O)n(CCC(CC)CC)c1=O | > 100 µM | > 100 µM | > 100 µM | > 100 µM | > 100 µM | > 100 µM | > 100 µM | > 100 µM | > 100 µM | – | – | – | – | > 100 µM | – | – | – | – | – | –
11 | CCCN(CCC)C(=O)[C@H](CC)[C@@H]1CC[C@@H](C)[C@@H]([C@H](C)[C@@H](O)[C@@H](C)C(=O)[C@H](CC)C2O[C@]3(C=C[C@@H](O)[C@]4(CC[C@@](C)([C@H]5CC[C@](O)(CC)[C@H](C)O5)O4)O3)[C@H](C)C[C@@H]2C)O1 (some centres undefined) | – | 4.04 µM | 3 µM | 19.9 µM | 4.56 µM | 12.7 µM | 5.85 µM | 9.83 µM | 59.2 µM | 1.71 µM | 1.5 µM | 3.29 µM | 2.87 µM | 9.87 µM | 1.82 µM | 3.1 µM | 2.13 µM | 2.84 µM | 3.36 µM | –
12 | COC(=O)c1cc2oc(/C=C3\SC(=S)N(NC(C)=O)C3=O)cc2n1Cc1ccccc1 | 12.6 µM | 16.8 µM | 1.6 µM | 15.5 µM | > 50 µM | 12.8 µM | 16.8 µM | 16.4 µM | 21.2 µM | 2.81 µM | 0.769 µM | 6.33 µM | 1.37 µM | 4.49 µM | > 50 µM | 3.47 µM | 8.07 µM | 5.69 µM | 6.8 µM | 5.63 µM
13 | O=C(N/N=C\c1ccc(N(CCCl)CCCl)cc1Cl)c1cccnc1 | 38.1 µM | 51.9 µM | 52.6 µM | > 100 µM | 86 µM | > 88.4 µM | 0.179 µM | 3.48 µM | > 100 µM | 14.2 µM | 16.1 µM | 26.6 µM | 10.4 µM | 94.1 µM | 21.4 µM | 20.2 µM | 0.0664 µM | 1.08 µM | 45.1 µM | 8.5 µM
14 | COc1ccccc1/C=N/N=C(\N)NO | > 100 µM | > 100 µM | > 100 µM | > 100 µM | 66.9 µM | > 100 µM | > 100 µM | > 100 µM | > 100 µM | – | – | – | – | > 100 µM | – | – | – | – | – | –
15 | OC(CNC1CCCC1)Cn1c2ccccc2c2ccccc21 (centres undefined) | > 100 µM | 52.5 µM | > 100 µM | 43.4 µM | 82.2 µM | > 100 µM | 47.7 µM | > 100 µM | > 100 µM | 16.3 µM | > 100 µM | 20.4 µM | 21.5 µM | 56.6 µM | 20 µM | > 100 µM | 10.7 µM | > 100 µM | 29.4 µM | > 100 µM
16 | CCOC(=O)C#Cc1c(CC(=O)OCC)nnn1[C@H]1O[C@@H](CO)[C@@H]2OC(C)(C)O[C@@H]21 | 4.06 µM | 3.32 µM | 2.97 µM | > 100 µM | 4.09 µM | 4.3 µM | 31.5 µM | 12.7 µM | > 100 µM | 1.69 µM | 1.35 µM | 37.3 µM | 14 µM | 27.6 µM | 2.12 µM | 2.13 µM | 17.7 µM | 4.47 µM | 33.9 µM | 2.05 µM
17 | COc1cc([C@@H]2OC(=O)C3C2C(=O)O[C@H]3c2cc(OC)c(OC)c(OC)c2)cc(OC)c1OC (some centres undefined) | > 100 µM | > 100 µM | > 100 µM | > 100 µM | > 100 µM | > 100 µM | > 100 µM | > 100 µM | > 100 µM | – | – | – | – | > 100 µM | – | – | – | – | – | –
18 | Oc1ccc(N=Nc2ccc(N=Nc3ccccc3)cc2)cc1 | 24.4 µM | 61.4 µM | 1.76 µM | 7.87 µM | 3.94 µM | 9.68 µM | 21.7 µM | 17 µM | 19.7 µM | 14.3 µM | 0.285 µM | 3.29 µM | 10.4 µM | 26.9 µM | 0.832 µM | 2.86 µM | 9.23 µM | 4.23 µM | 6.39 µM | 8.01 µM
19 | CN1CCn2c(c(Sc3ccc(C(=O)NO)cc3)c3ccccc32)C1=O | 3.87 µM | 3.17 µM | 3.66 µM | 4.8 µM | 2.66 µM | 9.38 µM | 1.8 µM | 3.56 µM | 9.99 µM | 1.62 µM | 1.78 µM | 2.11 µM | 1.79 µM | 4 µM | 1.13 µM | 2.92 µM | 0.151 µM | 1.51 µM | 2.34 µM | 1.69 µM
20 | Clc1ccc(SCCCCCCCCCCSc2ccc(Cl)cc2)cc1 | > 100 µM | > 100 µM | > 100 µM | > 100 µM | > 100 µM | > 100 µM | > 100 µM | > 76.1 µM | > 100 µM | – | – | – | – | > 69.8 µM | – | – | – | – | – | –
21 | CNc1nc(N(C)C)nc(N(C)C)n1 | > 100 µM and 4010 µM | > 100 µM and 3070 µM | > 100 µM and 5150 µM | > 100 µM and 3640 µM | > 100 µM and 3370 µM | > 100 µM and 3650 µM | > 100 µM and 2970 µM | > 100 µM and 3580 µM | > 100 µM and 3780 µM | > 100 µM and 975 µM | > 100 µM and 901 µM | > 100 µM and 1390 µM | > 100 µM and 1150 µM | > 100 µM and 2950 µM | > 100 µM and 874 µM | > 100 µM and 518 µM | > 100 µM and 1300 µM | > 100 µM and 1640 µM | > 100 µM and 1210 µM | > 100 µM and 1780 µM
